Results reported in patent US7005138B2, “Method of systematically delivering SSRIs” (Duramed Pharmaceuticals, Inc., priority 2001, dated 2006).

Tests used:
[1] = Rabbit study: plasma levels of fluoxetine and norfluoxetine after single oral vs. intravaginal dose
Method: (§1) A study was designed to compare the pharmacokinetic profiles of oral vs. intravaginal administration of fluoxetine in white albino female New Zealand rabbits. The study compared the blood levels of fluoxetine and/or its metabolites in the rabbits after either a single oral dose or a single intravaginal dose of fluoxetine hydrochloride. Both oral (tablet) and intravaginal (transvaginal insert) administration delivered the standard human daily dose of 20 mg fluoxetine hydrochloride to each rabbit. The oral route was used to compare the bioavailability of fluoxetine by the two routes of administration.
(§2) Three rabbits received the fluoxetine tablets orally, while three rabbits received fluoxetine inserts intravaginally. The fluoxetine tablets were administered orally using an animal pilling device. The fluoxetine inserts were administered by insertion into the vaginas of the rabbits. The inserts remained in place for 2–4 hours, after which they were removed. Removal was accomplished by using an appropriate instrument to grasp the extension on the back of the insert. If an insert was expelled from an animal before removal, it was noted but not replaced. Both tablets and intravaginal inserts were administered once on Day 0.
Blood samples were obtained for the determination of plasma concentrations of fluoxetine. Starting on Day 0, blood samples were obtained for toxicokinetic determinations from all animals pretest and at 1, 3, 8, 12, 16, 24, 36, 48, 72, 96, 120, 144, 168, 240, 360, 480, 672 and 840 hours post-dose. Pre-dose samples were collected one week prior to dosing. Approximately 1.5 mL of whole blood was obtained from the medial auricular artery of the unanesthetized rabbits, unfasted, and were preserved using ethylenediamine tetraacetic acid (EDTA). […]
The EDTA preserved rabbit plasma samples were analyzed for fluoxetine and norfluoxetine using a solid phase extraction (SPE) technique. […]
Samples were evaluated using a solid phase extraction technique using conditioned SPE cartridges, then analyzed via HPLC and mass spectroscopy. […]

[2] = rabbit
Method: as §1, §2
The animals were observed twice daily for mortality and general condition. Animals in poor health were identified and further monitored. In addition, observations were made for any signs of toxic or pharmacologic effects (e.g., abnormalities in general, appearance, activity, behavior, respiration, etc.).

[3] = oral administration; cited from earlier work
[4] = rabbit, cited from earlier work

Compound	fluoxetine plasma levels after 72 hours ([1]; in vivo, po)	decreased food consumption ([2]; in vivo, po)	differences in clinical observations or body weights between administration methods ([2]; in vivo, po)	mortality ([2]; oral tablet and intravaginal insert groups, length of the study)	half life [3] [h]	tolerability of repeated daily doses ([4]; in vivo)	mortality with repeated daily doses ([4]; up to 7.5 mg/kg/day)	mean plasma levels of metabolite norfluoxetine, intravaginal delivery compared to oral delivery ([1]; after fluoxetine single 20 mg dose)	mean norfluoxetine levels, persistence ([1]; oral group)
CNCCC(Oc1ccc(C(F)(F)F)cc1)c1ccccc1 (racemic) [fluoxetine, dl-N-methyl-γ-[4-(trifluoromethyl)phenoxy]benzenepropanamine]	almost undetectable	One animal from each treatment group	no differences	No mortality	48 to 72	fairly well tolerated	not associated with mortality	–	–
NCCC(Oc1ccc(C(F)(F)F)cc1)c1ccccc1 (stereo not shown) [norfluoxetine]	–	–	–	–	170 to 220	–	–	much lower	present throughout most of the study
